Earlier results, collected in US20260356814A1, “INDOLINE DERIVATIVES AS SEROTONERGIC AGENTS USEFUL FOR THE TREATMENT OF DISORDERS RELATED THERETO” (MINDSET PHARMA INC., priority 2022, published 2026).
Where two headings read alike, the source gives them in different places.

Experiments:
[1] = tested on: subpopulations of low attentive and low motivated rats; details: rat, in vivo; cited from earlier work
[2] = target: 5-HT2A and 5-HT2C receptors; details: compared with LSD; cited from earlier work
[3] = tested on: absolute metabolic rate of glucose in frontal and other cortical regions, striatal and limbic subcortical structures; details: 15 or 20 mg orally, healthy participants; cited from earlier work
[4] = tested on: brain's default mode network; details: intravenously administered; cited from earlier work
[5] = controlled setting; cited from earlier work
[6] = tested on: depression and anxiety associated with life-threatening disease; details: in a supportive setting; cited from earlier work
[7] = target: human 5-HT2A receptor (Homo sapiens, UniProt P28223); details: cited from earlier work
human 5-HT2A receptor, sequence (P28223 whole entry): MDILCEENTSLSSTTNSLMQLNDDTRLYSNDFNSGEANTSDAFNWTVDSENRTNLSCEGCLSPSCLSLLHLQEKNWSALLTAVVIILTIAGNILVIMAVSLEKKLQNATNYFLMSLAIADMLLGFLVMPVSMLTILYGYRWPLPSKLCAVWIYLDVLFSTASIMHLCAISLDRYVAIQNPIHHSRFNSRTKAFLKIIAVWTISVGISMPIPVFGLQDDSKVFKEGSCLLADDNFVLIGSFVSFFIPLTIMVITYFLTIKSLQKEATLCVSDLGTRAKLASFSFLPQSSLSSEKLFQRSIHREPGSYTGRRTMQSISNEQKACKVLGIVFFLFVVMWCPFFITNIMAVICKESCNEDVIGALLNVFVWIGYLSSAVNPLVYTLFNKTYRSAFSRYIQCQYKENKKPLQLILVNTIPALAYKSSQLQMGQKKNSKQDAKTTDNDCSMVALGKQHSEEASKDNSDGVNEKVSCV

[8] = tested on: tobacco use disorder; details: cited from earlier work
[9] = tested on: 5-HT2 receptor; details: daily administration; cited from earlier work

## CN(C)CCc1c[nH]c2cccc(OP(=O)(O)O)c12 [Psilocybin, 4-phosphoryloxy-N,N-dimethyltrypatmine]
[1]
  performance on 5 choice serial reaction time and progressive ratio tasks: improved performance on 5 choice serial reaction time and progressive ratio tasks
[2]
  K (i) for 5-HT2A and 5-HT2C relative to LSD: lower K (i) for both 5-HT2A and 5-HT2C receptors than LSD
[3]
  absolute metabolic rate of glucose: increased absolute metabolic rate of glucose in frontal, and to a lesser extent in other, cortical regions as well as in striatal and limbic subcortical structures
[4]
  oscillatory power in areas of the brain's default mode network: decreases in oscillatory power in areas of the brain's default mode network
[5]
  headache: transient, delayed headache, with incidence, duration, and severity increased in a dose-related manner
[6]
  anti-depressant and anxiolytic effects: significant and sustained anti-depressant and anxiolytic effects
[7]
  affinity for 5-HT2A, human versus rat receptor: stronger affinity for the human 5-HT2A receptor than for the rat receptor
[8]; 12 months follow-up
  abstinence rate: 67%
[8]; six months follow-up
  abstinence rate: 80%
[9]
  5-HT2 receptor density in rat brain: reduce 5-HT2 receptor density in rat brain
